{
  "source": "patent US7153472B1",
  "about": "“Preservation and formulation of bioactive materials for storage and delivery in hydrophobic carriers” (priority 2000, dated 2006)",
  "key": {"[1]": {"test": "Potency of Amphotericin after foam drying and storage", "format": "physicochemical", "description": "Freeze-dried samples of Amphotericin B were rehydrated with 5 ml 40 wt % sucrose per vial. Then the solutions (5 ml) were transferred into 50 ml sterilized glass vials for future preservation by drying. Before drying, the vials were covered with gray butyl slotted rubber stoppers. The vials were dried inside a vacuum chamber. The vials were placed on the surface of a stainless steel shelf inside the chamber. Before the vacuum was applied the shelf temperature was decreased to 5 C. The hydrostatic pressure inside the chamber was decreased to 0.5 Torr. Under such conditions the suspension boiled for 30 min. The temperature of the shelf was then slowly (during 30 min) increased to 25 C. Visually, stable dry foams were formed inside the vials under these experimental conditions within 3 hours. After an additional 12 hours of drying at room temperature, the chamber was filled with the dry N2 gas and the rubber stoppers in a portion of the vials were pushed down. The vials were removed from the chamber and subsequently sealed with aluminum crimped seal. The samples were assayed right after drying and after 30 days of storage at 27.5 and 40 C. The results are shown in Table 1, together with the results obtained in the next experiment.\nAnother set of freeze-dried samples of Amphotericin B was rehydrated with 5 ml 40 wt % sucrose per vial. The solutions were then transferred into sterilized glass vials for future preservation by drying similar to that described above with additional drying at 45 C for additional 24 hours. After that, the chamber was filled again with the dry N2 gas, the rubber stoppers were pushed down and the vials were sealed. The samples were assayed right after drying and after 30 day of storage at 27.5 and 40 C."}, "[2]": {"test": "isocitrate dehydrogenase activity (NADP reduction at 340 nm) after preservation by foam drying", "format": "biochemical", "description": "An aqueous 50% glycerol isocitrate dehydrogenase solution from Sigma Chemical Co. containing 59.4 units of activity per ml was dialyzed for 5 hours in 0.1 M TRIS HCl buffer (pH 7.4). The activity of the isocitrate dehydrogenase in the 0.1 M TRIS HCl solution after dialysis was 26±1.8 units per ml. The activity decrease was associated with a decrease in the enzyme concentration because of dilution during the dialysis.\nA mixture (100 l) containing 50 l of 50% by weight sucrose solution and 50 l of the isocitrate dehydrogenase suspension in 0.1 M TRIS HCl buffer (pH 7.4) was placed in 1.5 ml plastic tubes and preserved by drying at room temperature. First, the samples were dried for 4 hours under low vacuum (0.2 atm). Second, the samples were boiled during 4 hours under high vacuum (<0.01 atm). During this step, a mechanically stable dry foam was formed in the tubes. Third, the samples were stored during 8 days over DRIERITE under vacuum at room temperature.\nAfter 8 days, the samples were rehydrated with 500 l water. Rehydration of the samples containing dry foams was an easy process that was completed within several seconds. The reconstituted sample was assayed for activity by assaying ability to reduce NADP, measured spectrophotometrically at 340 nm. The reaction mix included: 2 ml 0.1 M TRIS HCl buffer, pH 7.4; 10 l of 0.5% by weight NADP+; 10 l of 10 mM MnSO4; 10 l of 50 mM 1-isocitrate; and 10 l of an isocitrate dehydrogenase solution."}, "[3]": {"settings": "aqueous 50% glycerol solution from Sigma Chemical Co., before dialysis; cited from earlier work"}, "[4]": {"test": "Urokinase activity after foam drying and storage", "format": "biochemical", "description": "Freeze-dried samples of Urokinase were rehydrated with 2 ml of 40 wt % sucrose. The solutions were then transferred to 20 ml sterilized glass vials for future preservation by drying. Before drying, the vials were covered with gray slotted rubber stoppers. The vials were dried inside a vacuum chamber. The vials were sitting on the surface of a stainless steel shelf inside the chamber. Before the vacuum was applied the shelf temperature was decreased to 5 C. Then the hydrostatic pressure inside the chamber was decreased to 0.5 Torr. Under such conditions, the suspension boiled for 30 min. […] Visually, under these experimental conditions, stable dry foams were formed inside the vials within 3 hours. After an additional 12 hours of drying at room temperature, the temperature was increased to 45 C for an additional 24 hours. After that the chamber was filled with dry N2 gas, the rubber stoppers were pushed down and the vials were sealed with aluminum crimp seals.\nThe samples were assayed right after drying and after 30 days of storage at 40 C. After drying the Urokinase, activity was 93% of the initial activity. This decrease was associated with the loss of Urokinase during transfer from initial vials to the vials at which the Urokinase was dried. After 30 days of storage at 40 C the activity was 90%. […]"}},
  "data": [
    {"compound": "C[C@@H]1[C@H](O)[C@@H](C)/C=C/C=C/C=C/C=C/C=C/C=C/C=C/[C@H](O[C@@H]2O[C@H](C)[C@@H](O)[C@H](N)[C@@H]2O)C[C@@H]2O[C@](O)(C[C@@H](O)C[C@@H](O)[C@H](O)CC[C@@H](O)C[C@@H](O)CC(=O)O[C@H]1C)C[C@H](O)[C@H]2C(=O)O", "note": "[Amphotericin, Amphotericin B]", "values": [
      {"measurement": "Potency of Amphotericin (%)", "setting": "[1]; Control (printed in column After drying)", "value": 126, "unit": "%"},
      {"measurement": "Potency of Amphotericin (%) After 30 days at 27.5 C.", "setting": "[1]; Td = 25 C", "value": 114, "unit": "%"},
      {"measurement": "Potency of Amphotericin (%) After 30 days at 40 C.", "setting": "[1]; Td = 25 C", "value": 95, "unit": "%"},
      {"measurement": "Potency of Amphotericin (%) After drying", "setting": "[1]; Td = 25 C", "value": 108, "unit": "%"},
      {"measurement": "Potency of Amphotericin (%) After 30 days at 27.5 C.", "setting": "[1]; Td = 45 C", "value": 102, "unit": "%"},
      {"measurement": "Potency of Amphotericin (%) After 30 days at 40 C.", "setting": "[1]; Td = 45 C", "value": 104, "unit": "%"},
      {"measurement": "Potency of Amphotericin (%) After drying", "setting": "[1]; Td = 45 C", "value": 103, "unit": "%"}
    ]},
    {"compound": "isocitrate dehydrogenase", "values": [
      {"measurement": "loss of activity during drying and subsequent storage", "setting": "[2]; 8 days at room temperature", "value": "no loss of activity"},
      {"measurement": "activity after rehydration", "setting": "[2]; dried with sucrose to foam, stored 8 days over DRIERITE under vacuum at room temperature, 100 l sample rehydrated with 500 l water", "value": "2.6±0.2", "unit": "units/ml"},
      {"measurement": "activity of isocitrate dehydrogenase after dialysis", "setting": "[2]; in 0.1 M TRIS HCl (pH 7.4) after 5 hours dialysis", "value": "26±1.8", "unit": "units per ml"},
      {"measurement": "activity of isocitrate dehydrogenase solution", "setting": "[3]", "value": "59.4 units of activity per ml"}
    ]},
    {"compound": "Urokinase", "values": [
      {"measurement": "Urokinase activity, % of the initial activity", "setting": "[4]; after 30 days of storage at 40 C", "value": 90, "unit": "%"},
      {"measurement": "Urokinase activity, % of the initial activity", "setting": "[4]; right after drying (40 wt % sucrose foam, up to 45 C)", "value": 93, "unit": "%"}
    ]}
  ]
}
